Data as given in ChEMBL document CHEMBL4828721, “Substituted dienes prepared from betulinic acid - Synthesis, cytotoxicity, mechanism of action, and pharmacological parameters” (Eur J Med Chem, 2021).

System: BJ
Test: Cytotoxicity against human BJ cells assessed as reduction in cell viability measured after 72 hrs by MTS assay
Type: cell-based
Conditions: not given
In the case of `C=C(/C=C/c1cccc(OC)c1)[C@@H]1CC[C@]2(C(=O)O)CC[C@]3(C)[C@H](CC[C@@H]4[C@@]5(C)CC[C@H](O)C(C)(C)[C@@H]5CC[C@]43C)[C@@H]12`, the IC50 is reported as > 50 µM. In the case of `C=C(/C=C/c1cccc([N+](=O)[O-])c1)[C@@H]1CC[C@]2(C(=O)O)CC[C@]3(C)[C@H](CC[C@@H]4[C@@]5(C)CC[C@H](O)C(C)(C)[C@@H]5CC[C@]43C)[C@@H]12`, the IC50 is reported as > 50 µM. With `C=C(/C=C/c1ccc(C#N)cc1)[C@@H]1CC[C@]2(C(=O)O)CC[C@]3(C)[C@H](CC[C@@H]4[C@@]5(C)CC[C@H](O)C(C)(C)[C@@H]5CC[C@]43C)[C@@H]12` the IC50 was > 50 µM. Work on `C=C(/C=C/c1ccccc1C)[C@@H]1CC[C@]2(C(=O)O)CC[C@]3(C)[C@H](CC[C@@H]4[C@@]5(C)CC[C@H](O)C(C)(C)[C@@H]5CC[C@]43C)[C@@H]12` yielded an IC50 of 33 µM.

System: MRC5
Test: Cytotoxicity against human MRC5 cells assessed as reduction in cell viability measured after 72 hrs by MTS assay
Type: cell-based
Conditions: MRC5, 72 h
Molecule `C=C(/C=C/c1cccc(OC)c1)[C@@H]1CC[C@]2(C(=O)O)CC[C@]3(C)[C@H](CC[C@@H]4[C@@]5(C)CC[C@H](O)C(C)(C)[C@@H]5CC[C@]43C)[C@@H]12` has an IC50 of 44.1 µM. `C=C(/C=C/c1cccc([N+](=O)[O-])c1)[C@@H]1CC[C@]2(C(=O)O)CC[C@]3(C)[C@H](CC[C@@H]4[C@@]5(C)CC[C@H](O)C(C)(C)[C@@H]5CC[C@]43C)[C@@H]12` showed an IC50 of 45.1 µM. With `C=C(/C=C/c1ccc(C#N)cc1)[C@@H]1CC[C@]2(C(=O)O)CC[C@]3(C)[C@H](CC[C@@H]4[C@@]5(C)CC[C@H](O)C(C)(C)[C@@H]5CC[C@]43C)[C@@H]12` the IC50 was 49.7 µM. For `C=C(/C=C/c1ccccc1C)[C@@H]1CC[C@]2(C(=O)O)CC[C@]3(C)[C@H](CC[C@@H]4[C@@]5(C)CC[C@H](O)C(C)(C)[C@@H]5CC[C@]43C)[C@@H]12`, the IC50 was 31.5 µM.

System: CEM-DNR
Test: Cytotoxicity against daunorubicin resistant human CEM-DNR cells assessed as reduction in cell viability measured after 72 hrs by MTS assay
Type: functional, cell-based
Conditions: not given
Work on `C=C(/C=C/c1cccc(OC)c1)[C@@H]1CC[C@]2(C(=O)O)CC[C@]3(C)[C@H](CC[C@@H]4[C@@]5(C)CC[C@H](O)C(C)(C)[C@@H]5CC[C@]43C)[C@@H]12` yielded an IC50 of 30.6 µM. `C=C(/C=C/c1cccc([N+](=O)[O-])c1)[C@@H]1CC[C@]2(C(=O)O)CC[C@]3(C)[C@H](CC[C@@H]4[C@@]5(C)CC[C@H](O)C(C)(C)[C@@H]5CC[C@]43C)[C@@H]12` showed an IC50 of 25.3 µM. Molecule `C=C(/C=C/c1ccc(C#N)cc1)[C@@H]1CC[C@]2(C(=O)O)CC[C@]3(C)[C@H](CC[C@@H]4[C@@]5(C)CC[C@H](O)C(C)(C)[C@@H]5CC[C@]43C)[C@@H]12` has an IC50 of 27 µM. Work on `C=C(/C=C/c1ccccc1C)[C@@H]1CC[C@]2(C(=O)O)CC[C@]3(C)[C@H](CC[C@@H]4[C@@]5(C)CC[C@H](O)C(C)(C)[C@@H]5CC[C@]43C)[C@@H]12` yielded an IC50 of 22.8 µM.

System: A549
Test: Cytotoxicity against human A549 cells assessed as reduction in cell viability measured after 72 hrs by MTS assay
Type: functional, cell-based
Conditions: A549, 72 h
Molecule `C=C(/C=C/c1cccc(OC)c1)[C@@H]1CC[C@]2(C(=O)O)CC[C@]3(C)[C@H](CC[C@@H]4[C@@]5(C)CC[C@H](O)C(C)(C)[C@@H]5CC[C@]43C)[C@@H]12` has an IC50 of 40.1 µM. With `C=C(/C=C/c1cccc([N+](=O)[O-])c1)[C@@H]1CC[C@]2(C(=O)O)CC[C@]3(C)[C@H](CC[C@@H]4[C@@]5(C)CC[C@H](O)C(C)(C)[C@@H]5CC[C@]43C)[C@@H]12` the IC50 was 48.8 µM. With `C=C(/C=C/c1ccc(C#N)cc1)[C@@H]1CC[C@]2(C(=O)O)CC[C@]3(C)[C@H](CC[C@@H]4[C@@]5(C)CC[C@H](O)C(C)(C)[C@@H]5CC[C@]43C)[C@@H]12` the IC50 was > 50 µM. Molecule `C=C(/C=C/c1ccccc1C)[C@@H]1CC[C@]2(C(=O)O)CC[C@]3(C)[C@H](CC[C@@H]4[C@@]5(C)CC[C@H](O)C(C)(C)[C@@H]5CC[C@]43C)[C@@H]12` has an IC50 of 26.8 µM.

System: CCRF-CEM
Test: Cytotoxicity against human CCRF-CEM cells assessed as reduction in cell viability measured after 72 hrs by MTS assay
Type: functional, cell-based
Conditions: not given
In the case of `C=C(/C=C/c1cccc(OC)c1)[C@@H]1CC[C@]2(C(=O)O)CC[C@]3(C)[C@H](CC[C@@H]4[C@@]5(C)CC[C@H](O)C(C)(C)[C@@H]5CC[C@]43C)[C@@H]12`, the IC50 is reported as 4.6 µM. `C=C(/C=C/c1cccc([N+](=O)[O-])c1)[C@@H]1CC[C@]2(C(=O)O)CC[C@]3(C)[C@H](CC[C@@H]4[C@@]5(C)CC[C@H](O)C(C)(C)[C@@H]5CC[C@]43C)[C@@H]12` gave an IC50 of 12.4 µM. `C=C(/C=C/c1ccc(C#N)cc1)[C@@H]1CC[C@]2(C(=O)O)CC[C@]3(C)[C@H](CC[C@@H]4[C@@]5(C)CC[C@H](O)C(C)(C)[C@@H]5CC[C@]43C)[C@@H]12` showed an IC50 of 23.8 µM. `C=C(/C=C/c1ccccc1C)[C@@H]1CC[C@]2(C(=O)O)CC[C@]3(C)[C@H](CC[C@@H]4[C@@]5(C)CC[C@H](O)C(C)(C)[C@@H]5CC[C@]43C)[C@@H]12` gave an IC50 of 19.1 µM.

System: not listed separately
Test: Cytotoxicity against human HCT116 p53-null cells assessed as reduction in cell viability measured after 72 hrs by MTS assay
Type: functional, cell-based
Conditions: not given
`C=C(/C=C/c1cccc(OC)c1)[C@@H]1CC[C@]2(C(=O)O)CC[C@]3(C)[C@H](CC[C@@H]4[C@@]5(C)CC[C@H](O)C(C)(C)[C@@H]5CC[C@]43C)[C@@H]12` gave an IC50 of 39.6 µM. For `C=C(/C=C/c1cccc([N+](=O)[O-])c1)[C@@H]1CC[C@]2(C(=O)O)CC[C@]3(C)[C@H](CC[C@@H]4[C@@]5(C)CC[C@H](O)C(C)(C)[C@@H]5CC[C@]43C)[C@@H]12`, the IC50 was 35.5 µM. In the case of `C=C(/C=C/c1ccc(C#N)cc1)[C@@H]1CC[C@]2(C(=O)O)CC[C@]3(C)[C@H](CC[C@@H]4[C@@]5(C)CC[C@H](O)C(C)(C)[C@@H]5CC[C@]43C)[C@@H]12`, the IC50 is reported as 43.3 µM. `C=C(/C=C/c1ccccc1C)[C@@H]1CC[C@]2(C(=O)O)CC[C@]3(C)[C@H](CC[C@@H]4[C@@]5(C)CC[C@H](O)C(C)(C)[C@@H]5CC[C@]43C)[C@@H]12` gave an IC50 of 25.9 µM.

System: K562
Test: Cytotoxicity against human K562 cells assessed as reduction in cell viability measured after 72 hrs by MTS assay
Type: functional, cell-based
Conditions: K562, 72 h
In the case of `C=C(/C=C/c1cccc(OC)c1)[C@@H]1CC[C@]2(C(=O)O)CC[C@]3(C)[C@H](CC[C@@H]4[C@@]5(C)CC[C@H](O)C(C)(C)[C@@H]5CC[C@]43C)[C@@H]12`, the IC50 is reported as 41.4 µM. In the case of `C=C(/C=C/c1cccc([N+](=O)[O-])c1)[C@@H]1CC[C@]2(C(=O)O)CC[C@]3(C)[C@H](CC[C@@H]4[C@@]5(C)CC[C@H](O)C(C)(C)[C@@H]5CC[C@]43C)[C@@H]12`, the IC50 is reported as > 50 µM. For `C=C(/C=C/c1ccc(C#N)cc1)[C@@H]1CC[C@]2(C(=O)O)CC[C@]3(C)[C@H](CC[C@@H]4[C@@]5(C)CC[C@H](O)C(C)(C)[C@@H]5CC[C@]43C)[C@@H]12`, the IC50 was > 50 µM. `C=C(/C=C/c1ccccc1C)[C@@H]1CC[C@]2(C(=O)O)CC[C@]3(C)[C@H](CC[C@@H]4[C@@]5(C)CC[C@H](O)C(C)(C)[C@@H]5CC[C@]43C)[C@@H]12` gave an IC50 of 28.1 µM.

System: HCT-116
Test: Cytotoxicity against human HCT-116 cells assessed as reduction in cell viability measured after 72 hrs by MTS assay
Type: functional, cell-based
Conditions: HCT-116, 72 h
`C=C(/C=C/c1cccc(OC)c1)[C@@H]1CC[C@]2(C(=O)O)CC[C@]3(C)[C@H](CC[C@@H]4[C@@]5(C)CC[C@H](O)C(C)(C)[C@@H]5CC[C@]43C)[C@@H]12` showed an IC50 of 34.6 µM. Work on `C=C(/C=C/c1cccc([N+](=O)[O-])c1)[C@@H]1CC[C@]2(C(=O)O)CC[C@]3(C)[C@H](CC[C@@H]4[C@@]5(C)CC[C@H](O)C(C)(C)[C@@H]5CC[C@]43C)[C@@H]12` yielded an IC50 of 37.5 µM. `C=C(/C=C/c1ccc(C#N)cc1)[C@@H]1CC[C@]2(C(=O)O)CC[C@]3(C)[C@H](CC[C@@H]4[C@@]5(C)CC[C@H](O)C(C)(C)[C@@H]5CC[C@]43C)[C@@H]12` gave an IC50 of 39.1 µM. Work on `C=C(/C=C/c1ccccc1C)[C@@H]1CC[C@]2(C(=O)O)CC[C@]3(C)[C@H](CC[C@@H]4[C@@]5(C)CC[C@H](O)C(C)(C)[C@@H]5CC[C@]43C)[C@@H]12` yielded an IC50 of 29.7 µM.

System: U2OS
Test: Cytotoxicity against human U2OS cells assessed as reduction in cell viability measured after 72 hrs by MTS assay
Type: functional, cell-based
Conditions: not given
For `C=C(/C=C/c1cccc(OC)c1)[C@@H]1CC[C@]2(C(=O)O)CC[C@]3(C)[C@H](CC[C@@H]4[C@@]5(C)CC[C@H](O)C(C)(C)[C@@H]5CC[C@]43C)[C@@H]12`, the IC50 was 25.2 µM. `C=C(/C=C/c1cccc([N+](=O)[O-])c1)[C@@H]1CC[C@]2(C(=O)O)CC[C@]3(C)[C@H](CC[C@@H]4[C@@]5(C)CC[C@H](O)C(C)(C)[C@@H]5CC[C@]43C)[C@@H]12` gave an IC50 of 29.3 µM. Work on `C=C(/C=C/c1ccc(C#N)cc1)[C@@H]1CC[C@]2(C(=O)O)CC[C@]3(C)[C@H](CC[C@@H]4[C@@]5(C)CC[C@H](O)C(C)(C)[C@@H]5CC[C@]43C)[C@@H]12` yielded an IC50 of 44.1 µM. With `C=C(/C=C/c1ccccc1C)[C@@H]1CC[C@]2(C(=O)O)CC[C@]3(C)[C@H](CC[C@@H]4[C@@]5(C)CC[C@H](O)C(C)(C)[C@@H]5CC[C@]43C)[C@@H]12` the IC50 was 28 µM.

System: not listed separately
Test: Cytotoxicity against paclitaxel resistant human K562-Tax cells assessed as reduction in cell viability measured after 72 hrs by MTS assay
Type: functional, cell-based
Conditions: not given
With `C=C(/C=C/c1cccc(OC)c1)[C@@H]1CC[C@]2(C(=O)O)CC[C@]3(C)[C@H](CC[C@@H]4[C@@]5(C)CC[C@H](O)C(C)(C)[C@@H]5CC[C@]43C)[C@@H]12` the IC50 was 25.6 µM. `C=C(/C=C/c1cccc([N+](=O)[O-])c1)[C@@H]1CC[C@]2(C(=O)O)CC[C@]3(C)[C@H](CC[C@@H]4[C@@]5(C)CC[C@H](O)C(C)(C)[C@@H]5CC[C@]43C)[C@@H]12` gave an IC50 of 24.3 µM. `C=C(/C=C/c1ccc(C#N)cc1)[C@@H]1CC[C@]2(C(=O)O)CC[C@]3(C)[C@H](CC[C@@H]4[C@@]5(C)CC[C@H](O)C(C)(C)[C@@H]5CC[C@]43C)[C@@H]12` showed an IC50 of 27.2 µM. In the case of `C=C(/C=C/c1ccccc1C)[C@@H]1CC[C@]2(C(=O)O)CC[C@]3(C)[C@H](CC[C@@H]4[C@@]5(C)CC[C@H](O)C(C)(C)[C@@H]5CC[C@]43C)[C@@H]12`, the IC50 is reported as 25.9 µM.
